Results taken from patent US5420143A, “Piperidine derivatives for treating allergy” (Kowa Co., Ltd., priority 1993, dated 1995).

Legend:
[1] = system: ileum isolated from guinea pigs, contraction induced by leukotriene D4; experiment: Inhibition of leukotriene D4 induced contraction of isolated guinea pig ileum (antileukotriene activity); settings: Average ± S.D.; leukotriene D4 1×10^-8 M; 30 minutes incubation with test compound; test compound concentration not given
Protocol: (§1) Antihistamine activity and antileukotriene activity:
(§2) The first three constant constractions induced by histamine (1×10^-5 M) or leukotriene D4 (1×10^-8 M) were used as the reference for the calculation of the inhibitory ratio. After repeated washings until contraction movement recurred, ileal strip was incubated with the test compound for 30 minutes. The contraction test was then conducted again using histamine or leukotriene D4. The inhibitory ratio (%) of the test compound on the ileum was calculated according to the following equation: [formula]

[2] = system: ileum isolated from guinea pigs, contraction induced by histamine; experiment: Inhibition of histamine-induced contraction of isolated guinea pig ileum (antihistamine activity); settings: Average ± S.D.; histamine 1×10^-5 M; 30 minutes incubation with test compound; test compound concentration not given
Protocol: as §1, §2

Leukotriene D4 receptors = target: T1, Leukotriene D4 receptors (Cavia porcellus, UniProt Q2NNR5); experiment: Binding assay on Leukotriene D4 receptors (guinea-pig lung membrane protein, [^3 H]-leukotriene D4)
T1 construct: Preparation of guinea-pig lung membrane protein; from tissue; host or cells: guinea-pig lung membranes
T1 sequence (Q2NNR5 1-340): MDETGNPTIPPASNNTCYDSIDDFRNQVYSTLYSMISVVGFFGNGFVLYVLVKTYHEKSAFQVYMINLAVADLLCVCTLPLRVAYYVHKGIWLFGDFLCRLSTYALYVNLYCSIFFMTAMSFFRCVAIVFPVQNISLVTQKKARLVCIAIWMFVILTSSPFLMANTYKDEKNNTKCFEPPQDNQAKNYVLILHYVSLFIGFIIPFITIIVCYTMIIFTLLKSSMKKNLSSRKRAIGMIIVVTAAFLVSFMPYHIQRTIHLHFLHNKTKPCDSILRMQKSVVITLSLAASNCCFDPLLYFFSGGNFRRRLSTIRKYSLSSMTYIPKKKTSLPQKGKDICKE
Excerpt: Binding assay on Leukotriene D4 receptors:
a) Preparation of guinea-pig lung membrane protein:

Row | antileukotriene activity (nature of the activity) (Leukotriene D4 receptors; binding assay on leukotriene D4 receptors) | Kd (Leukotriene D4 receptors; read-out: binding affinity on leukotriene D4 receptors (Kd)) [µM] | SMILES | Inhibition vs leukotriene D4 induced contraction (%) [1] [%] | Inhibition vs histamine-induced contraction (%) [2] [%]
1 |  |  | CCCc1c(OCC(O)COc2ccc3c(=O)cc(C(=O)O)oc3c2CCC)ccc(C(C)=O)c1O (centres unmarked) [FPL-55712] | 11 ± 4 | 0
2 | antagonistic | 2.32 | O=c1cc(-c2nnn[nH]2)oc2cc(OCCCN3CCC(=C(c4ccccc4)c4ccccc4)CC3)ccc12 [Compound (1), 7-[3-(4-Diphenylmethylenepiperidin-1-yl)propyloxy]-2-(5-tetrazolyl)-4-oxo-4H-benzopyran] | 15 ± 1 | 52 ± 7
3 |  |  | CC(C)(C)c1ccc(C(O)CCCN2CCC(C(O)(c3ccccc3)c3ccccc3)CC2)cc1 (centres unmarked) [Terfenadine] | 0 | 5 ± 1
